# Data reported in patent EP1189687B1, “FLOWABLE W/O TYPE EMULSIONS WITH A HIGH WATER CONTENT CONTAINING MEDIUM POLAR LIPIDS” (Beiersdorf AG, priority 1999, dated 2000).
# Test: Interfacial tension of medium-polar lipids against water (measure of polarity)
# Format: physicochemical
# Details: taken as polarity index of the lipid (the lower the tension, the more polar)
# Description: Öle und Fette unterscheiden sich unter anderem in ihrer Polarität, welche schwierig zu definieren ist. Es wurde bereits vorgeschlagen, die Grenzflächenspannung gegenüber Wasser als Maß für den Polaritätsindex eines Öls bzw. einer Ölphase anzunehmen. Dabei gilt, daß die Polarität der betreffenden Ölphase umso größer ist, je niedriger die Grenzflächenspannung zwischen dieser Ölphase und Wasser ist. Erfindungsgemäß wird die Grenzflächenspannung als ein mögliches Maß für die Polarität einer gegebenen Ölkomponente angesehen.
# Die Grenzflächenspannung ist diejenige Kraft, die an einer gedachten, in der Grenzfläche zwischen zwei Phasen befindlichen Linie der Länge von einem Meter wirkt. Die physikalische Einheit für diese Grenzflächenspannung errechnet sich klassisch nach der Beziehung Kraft/Länge und wird gewöhnlich in mN/m (Millinewton geteilt durch Meter) wiedergegeben. Sie hat positives Vorzeichen, wenn sie das Bestreben hat, die Grenzfläche zu verkleinern. Im umgekehrten Falle hat sie negatives Vorzeichen.
# Die nachfolgende Tabelle 1 führt mittelpolare Lipide auf, die als Einzelsubstanzen oder auch im Gemisch untereinander erfindungsgemäß vorteilhaft sind. Die betreffenden Grenzflächenspannungen gegen Wasser sind in der letzten Spalte angegeben. Es ist jedoch auch vorteilhaft, Gemische aus höher- und niederpolaren und dergleichen zu verwenden, sofern gewährleistet ist, daß die Gesamtpolarität der Ölphase im beanspruchten Bereich liegt. Tabelle 1
row,SMILES,Grenzflächenspannung gegen Wasser
1,"CCCCCCCCCCCCCCCCCCOC(=O)CCCCCC [Tegosoft® SH, Stearyl Heptanoate]","28,7 mN/m"
2,"CCCCCCCCOC(=O)CCCCCCCCCCCCCCC(C)C [Prisorine® 2036, Octyl Isostearate]","29,7 mN/m"
3,"CCCCCCCCCCC(CO)CCCCCCCC (centres unmarked) [Eutanol® G, Octyldodecanol]","24,8 mN/m"
4,"CCCCCCCCCCCCCCCCCC(=O)OC(C)C [Isopropylstearal, Isopropyl Stearate]","21,9 mN/m"
5,"CCCCCCCCCCCCCCCCCC(=O)OCCCCCCCC [Cetiol® 868, Octyl Stearate]","28,4 mN/m"
6,"CCCCCCCCCCCCCC(=O)OCC(CCCCCCCC)CCCCCCCCCC (centres unmarked) [MOD, Octyldodeceyl Myristate]","22,1 mN/m"
7,"CCCCCCCCC(CO)CCCCCC (centres unmarked) [Isofol® 16, Hexyl Decanol]","24,3 mN/m"
8,"CCCCCCCC(=O)OCC(COC(=O)CCCCCCC)OC(=O)CCCCCCC [Trivent® OCG, Tricaprylin]","20,2 mN/m"
